Data set [1] in a line: Drug distribution to brain and liver in mice. Conditions: for Kp at 4 h / Kp at 8 h: male, Swiss Albino, mouse, ip, 10 mg/kg, ng/g normalized against ng/mL. Format: in vivo, Swiss Albino mice. As to the method: (§1) These studies were performed at the GVKBioscience Pvt. LTD Contract Research and Development Organization (CRDO). Animals were housed in cages with clean bedding. Adult Swiss Albino male mice (weight = 20–35 g) were maintained and monitored for good health in accordance with GVKBioscience Pvt. LTD Test Facility SOPs and at the discretion of the laboratory animal veterinarian. Certified rodent diet was provided, and water was available ad libitum. A periodic analysis of the water was performed, and the results have been archived at the Test Facility. Environmental controls for the animal room were set to maintain a temperature of 22 to 25 °C, humidity of 40–70% relative humidity, and a 12-h light/12-h dark cycle. Animals have been dosed i.v. with 1 mg/kg of FHP01 i.p. with 10 mg/kg of compound or p.o. through gastric gavage needle with 50 mg/kg of compound. Next, mice were anesthetized using gaseous anesthesia and blood samples were collected at each time point, from 3 mice of respective group. After collection of blood samples at each time point, the blood samples were stored on ice, prior to centrifugation. Blood samples were centrifuged at 1540 rcf (5000 rpm), 4 °C for 10 min to separate plasma. Plasma was transferred to pre-labeled micro-centrifuge tubes and promptly frozen at −80 °C until analysis. Samples have been identified by test item, group, animal number, and collection time point. A fit-for-purpose bioanalytical method was developed for analyzing the plasma samples. One set of nine standards have been run before the sample batch and used for plotting the calibration curve. Quality control (QC) samples have been prepared at a minimum of three concentrations, i.e., LQC (not more than 5 times to that of lowest standard concentration), HQC (not less than 75% of the highest standard concentration), and MQC (between the low and high concentration). Minimum of 6 QC samples (three concentrations in duplicate). One Set of QC (LQC, MQC, and HQC) samples have been analyzed before and after the sample batch.
For the analyses of drug distribution to brain and liver, whole body perfusion was performed using chilled saline in the defined group of animals followed by decapitation for tissue collection. The chest of the mice was exposed, the abdominal aorta was clamped, and both jugular veins were cut. Intra-cardial perfusion was performed through an insertion in the left ventricle. Mice brains and livers have been collected and immediately washed, dried, weighed and freeze at −80 °C until homogenization. The protocol has been reviewed and approved by the Institutional Animal Ethics Committee (IAEC).

Data set [2] can be described thus: Pharmacokinetic profiling, plasma concentration in mice. In kind it is in vivo, Swiss Albino mice. As to the method: as §1
Another data set concerns DDX3X. Details: method as in earlier work. To be noted: in vitro enzymatic activity; read-out: IC50, DDX3X helicase activity; cited from earlier work.
Data set [3] deals with DDX3X and β-catenin in MDA MB 231 tumors. Description: Western blot of DDX3X and β-catenin in tumors from treated mice. In kind it is in vivo, athymic nude mice. To be noted: 45 mg/kg i.p. three times per week for 4 weeks, individual tumors. As to the method: (§2) Cells (1 × 10^5) were seeded in 6-well plates. After 24 h, cells were treated for indicated times with DMSO (vehicle) or FHP01 or XAV939 (Merck). After treatments, cells were washed with cold PBS and total protein extracts obtained by adding 80 µL of “RIPA Lysis buffer” (50 mM Tris-HCl pH 8.0, 150 mM NaCl, 0.5% Sodium deoxycholate, 0.1% SDS, 1% NP-40, 2 mM Orthovanadate, 2mM Sodium fluoride, 1mM Dithiothreitol and 1× protease inhibitors). After mechanicals detachment with cell scrapers, total lysates were collected in tubes, vortexed, and incubated for 15 min on ice. Tumors from mice were collected and disrupted by bead homogenization in Lysing Matrix D tubes using a FastPrep-24 5G homogenizer (MP Biomedicals, Solon, OH, USA) filled with “RIPA Lysis buffer” w:v. Next, samples were centrifuged for 10 min at 16,000× g, and supernatants were collected, representing total cell lysates.
(§3) Densitometric analysis of western blots was performed with NIH Image J (National Institutes of Health).
In general terms: A western blot detects proteins with antibodies after separation by electrophoresis.

Data set [4] deals with WNT signaling (TCF/LEF transcriptional activity). Description: TCF/LEF luciferase reporter assay (WNT1/WNT3A) in MDA MB 231 cells. In kind it is cell-based, human. To be noted: MDA MB 231, 6 μM, 48 h. As to the method:
MDA MB 231 cells were seeded at 3 × 10^4 cells/well density in 12-well plates, in triplicate, and transfected with 250 ng of the M50 Super 8× TOPFlash reporter vector (Addgene Plasmid #12456) and 1 μg of expression vectors inducing the WNT pathway (Wnt1-V5, Addgene plasmid #43807, and Wnt3A-V5, Addgene plasmid #43810). Eight hours after transfection, cells were treated with FHP01, XAV939 (Merck, Kenilworth, NJ, USA) or DMSO for indicated times prior to lysis in Passive Lysis Buffer (Promega, Madison, WI, USA). Luciferase activity in cellular lysates was assessed on a Glomax 20/20 luminometer (Promega) using the Luciferase Assay System (Promega). Results were normalized for GFP expression, upon transfection with GFP coding vector (1 μg). Representative results from 3 independent experiments are shown (n = 3). Error bars represent the Standard Error of the Mean. All samples were read at least in triplicate.
A general note: Reporter assays use an easily measured gene product as a stand-in for the process of interest.

The next data set has as its system PBMCs. In words: Cell viability assay in peripheral blood mononuclear cells. Format: cell-based. Conditions: up to a concentration of 50 μM, 72 h. As to the method:
Two days before the assay, phytohemagglutinin-A (PHA) 2 µg/mL was added to the PBMC culture. Cells were seeded at 13 × 10^4 cells/well in triplicate and maintained at 37 °C in 5% CO2. After 24 h, cells were treated with 10 μM and 50 μM of indicated drugs. After 72 h incubation, cells were washed in PBS and harvested. Cell number of each sample was determined with Z2 Coulter Counter (Beckman Coulter), in triplicate. Data about cell viability were plotted in GraphPad Prism 8.0 software 100% viability corresponding to vehicle (DMSO) treated PBMCs.

The subject of a further data set is β-catenin. Description: Western blot of β-catenin protein levels in MDA MB 231 cells. Format: cell-based, human. To be noted: MDA MB 231, 6 μM, 48 to 72 h. As to the method:
as §2, §3

The mark [5] stands for this setting: brain/plasma, i.p. administration, read-out: BRAIN/PLASMA.
[6] abbreviates: liver/plasma, i.p. administration, read-out: LIVER/PLASMA.

“And” between values parts separate entries of the source, which are not always exact repeats. Identical values can stand only once. Like-named read-outs stand apart in the source and are kept apart here.

On to `CCCCc1cn(-c2ccc(NC(=O)Nc3ccccc3C(F)(F)F)cc2)nn1` [FHP01], for which the tissue concentration result in data set [1] (24 h after administration) was “below the level of quantitation”. In data set [1] (i.p. administration, 12h), the BRAIN/PLASMA result is listed as “BLQ”. The LIVER/PLASMA entry in data set [1] (i.p. administration, 12h) is given as “BLQ”. Moreover, the Kp at 4 h was determined as 0.5 ± 0.24 in data set [1] (setting [5]) and 3.75 ± 1.06 in data set [1] (setting [6]). Besides, the Kp at 8 h is 3.14 ± 0.74 in data set [1] (setting [5]) and 6.32 ± 2.23 in data set [1] (setting [6]). In addition, the plasma concentration profile entry in data set [2] (1 mg/kg i.v.) is “rapidly decreasing plasma concentration”; in data set [2] (10 mg/kg i.p.) it was “high plasma concentration”; in data set [2] (50 mg/kg p.o.), “high plasma concentration”. Moreover, in the data set with DDX3X, the 50% inhibitory concentration (IC50) (usually the concentration needed to halve the response being measured) is 300 nM. Further, the “DDX3X : ERK2 in tumors” value in data set [3] (Ctrl 0.64, 1.00, 0.60) is 0.01 (2×) and 0.13. Besides, the “β-Catenin : ERK2 in tumors” value in data set [3] (Ctrl 0.64, 1.00, 0.89) is 0.64 and 0.79 and 0.70. Also, the “WNT1- and WNT3A-dependent TCF/LEF transcriptional activity” value in data set [4] was “strong inhibition”. In addition, the “effect on viability of normal PBMC” value in the data set with PBMCs is reported as “no effect”. For the same molecule, the β-catenin protein levels entry in the data set on β-catenin is “time-dependent reduction”.

Source of the values: paper PMC8507746, “The FHP01 DDX3X Helicase Inhibitor Exerts Potent Anti-Tumor Activity In Vivo in Breast Cancer Pre-Clinical Models” (Cancers, 2021).
